Data on three molecules can be found in patent US9238659B2, “Method of using binuclear gold (I) compounds for cancer treatment” (University of Hong Kong, priority 2012, dated 2016).

For orientation: IC50 means the point on the concentration scale where inhibition reaches its midpoint.

Data set [1] relates to hepatocellular carcinoma (HepG2). Put plainly: MTT cytotoxicity assay, HepG2. Type of data set: cell-based, human. The settings on record: 72 h of incubation. On the technique in general: Tetrazolium assays rely on reduction of a dye to a coloured formazan, in cell work by metabolically active cells.
The next data set deals with H1975. Put plainly: MTT cytotoxicity assay, H1975. Format: cell-based, human. The settings on record: 72 h of incubation.
For a further data set, the system named is breast carcinoma (MCF-7). Put plainly: MTT cytotoxicity assay, MCF-7. Format: cell-based, human. The settings on record: 72 h of incubation.
The test system of a further data set is lung carcinoma (HCC827). Put plainly: MTT cytotoxicity assay, HCC827. Format: cell-based, human. The settings on record: 72 h of incubation.
Data set [2] has as its system cervical epithelioid carcinoma (HeLa). The data set is described as follows: MTT cytotoxicity assay, HeLa. Type of data set: cell-based, human. The settings on record: 72 h of incubation.
Data set [3] concerns human nasopharyngeal carcinoma (HONE1). Put plainly: MTT cytotoxicity assay, HONE1. Type of data set: cell-based. The settings on record: 72 h of incubation.
For data set [4], the system named is human nasopharyngeal carcinoma (SUNE1). The data set is described as follows: MTT cytotoxicity assay, SUNE1. Format: cell-based. The settings on record: 72 h of incubation.
Data set [5] is described as follows: Reactivity towards physiological thiols (ESI-MS monitoring of reaction with GSH). Type of data set: physicochemical. The settings on record: GSH […]10^−5M or 5×10^−5M, about 45 min. On the procedure:
FIGS. 6A-C show stability tests: (A) UV/vis absorption of 1 in PBS (containing 5% acetonitrile, v/v) at different time point; (B) Linear response of ESI-MS intensity of 1 versus concentration; (C) Kinetics analysis of reaction of 1 with GSH, auranofin was used as a reference compound. Unreacted compound percentage was calculated by combined MS intensity of each 10 scans at different time point then divided by pre-determined MS intensity of initial concentration. It was believed that high reactivity of the gold(I) anticancer drugs towards physiological thiols may fail the drugs targeting to the solid tumor tissue thus hamper the application for in vivo cancer treatment. As a result, high resolution ESI-MS was applied to monitor the reaction of 1 with thiol-containing GSH.

In the case of `CCN(CC)C1=[S+][Au-][P+](c2ccccc2)(c2ccccc2)C[P+](c2ccccc2)(c2ccccc2)[Au-][S]1.O=S(=O)(O)C(F)(F)F` [Compound 4, [Au2-dppm-dedt] (OTf)], the IC50 was 950 ± 580 nM in data set [1]; < 190 nM with H1975; 500 ± 60 nM in the data set on breast carcinoma (MCF-7); 480 ± 60 nM in the data set on lung carcinoma (HCC827); 630 nM in data set [2]; 590 ± 40 nM in data set [3]. Further, the IC50 in data set [4] stood at 1620 ± 440 nM.
Take `CCN(CC)C1=[S+][Au-][P+](C2CCCCC2)(C2CCCCC2)C[P+](C2CCCCC2)(C2CCCCC2)[Au-][S]1.O=S(=O)(O)C(F)(F)F` [Compound 3, [Au2-dcpm-dedt] (OTf)]: the IC50 in data set [1] is 540 ± 70 nM; in the data set with breast carcinoma (MCF-7), 410 ± 200 nM; in data set [2] it was < 390 nM; in data set [3], 410 ± 70 nM; in data set [4] it was 670 ± 280 nM.
For the molecule `CC(=O)OC[C@H]1O[C@@H]([S-])[C@H](OC(C)=O)[C@@H](OC(C)=O)[C@@H]1OC(C)=O.CCP(CC)CC.[Au+]` [auranofin, reference compound], in data set [5], the “reaction towards GSH (reference compound)” value is on record as “fast reaction towards GSH”.
